Series [1] has as its target P-gp (Homo sapiens, UniProt P08183). To be noted: literature (Hyafil F et al., Cancer Res 1993); cited from earlier work.
For series [2], the system named is control cells (EPG85-257P). Description: C6-NBD-PS outward translocation assay. Type of series: cell-based, human. To be noted: 10 µM inhibitor; 30 minutes at 37°C (Fig. 8). The procedure:
(§1) To measure redistribution of C6-NBD-PS from the cytoplasmic to the exoplasmic leaflet, labelling of the cytoplasmic leaflet is preconditional. Previously, we have introduced a method to achieve efficient labeling of the plasma membrane inner leaflet of the gastric carcinoma cell line EPG85-257 (Pohl, A., Lage, H., Müller, P., Pomorksi, T., and Herrmann. A. (2002) Biochem. J. 365, 259-268). Briefly, cells were preincubated with or without MDR inhibitors, labelled with 5 µM C6-NBD-PS, and incubated at 20°C for 30 minutes to allow inward movement of the NBD analogue. C6-NBD-PS remaining on the cell surface was extracted twice by incubation with 2% (w/v) BSA in mPBS for 10 minutes on ice. Before starting the outward translocation assay, the medium was removed, and cells were washed with ice-cold mPBS. For t=0', ice-cold medium containing 2% (w/v) BSA and 5 mM DFP ( = diisopropyl fluoro-phosphate) in mPBS with or without inhibitor was immediately added to the cell dish for 10 minutes. To measure C6-NBD-PS outward translocation, medium prewarmed to 37°C was added to the dish, and cells were incubated at 37°C for 30 minutes (t = 30'). Removal of the BSA-containing media and a second extraction with 2% BSA in mPBS for 10 minutes terminated incubations, followed by lipid analysis.
(§2) After the incubations, the second BSA back exchange medium was pooled with the first, and cells scraped into mPBS. For analysis of outward translocation and of metabolic conversion of C6-NBD-PS, lipids from both scraped cells and media were extracted with isopropanol/chloroform/(5.5:1, v/v) to prevent substantial loss into the aqueous phase. Samples were centrifuged at 780 g for 5 minutes, the supernatant transferred into new glass tubes and dried, dissolved in chloroform/methanol (1:1) and quantified spectroscopically. For C6-NBD-PC analysis, lipids from both cells and incubation media were extracted by the method of Bligh and Dyer (Bligh, E., and Dyer, W. (1959) Can. J Biochem. Physiol. 37, 911-917) using 20 mM acetic acid in the aqueous phase. After 2-D separation [I, chloroform/methanol/25% ammonium hydroxide (65:25:4, v/v); II, chloroform/acetone/methanol/acetic acid/water (10:4:2:2:1, v/v)] on thin layer chromatography plates, fluorescent lipid spots were visualized under ultraviolet light, scraped, and quantified as described before (Pomorski, T., Müller, P., Zimmermann, B., Burger, K., Devaux, P., and Herrmann, A. (1996) J. Cell Sci. 109, 687-698).

In series [3] the test system is MDR1 Pgp overexpressing subline (EPG85-257RDB). The series can be described thus: C6-NBD-PS outward translocation assay. In kind it is cell-based, human. To be noted: 10 µM inhibitor; 30 minutes at 37°C (Fig. 8). The procedure:
as §1, §2

For series [4], the system named is BCRP overexpressing cells (EPG85-257RNOV). The series can be described thus: C6-NBD-PS outward translocation assay. In kind it is cell-based, human. To be noted: pretreatment with 10 µM inhibitor; 30 minutes at 37°C (Fig. 8). Here is the method:
as §1, §2

For series [5], the system named is P-gp. Description: Mitoxantrone accumulation assay (flow cytometry). Type of series: cell-based, human. To be noted: human, EPG85-257RDB cells (P-gp-expressing, classical MDR variant), probe mitoxantrone; 1 µM GF120918 (Fig 4); read-out: inhibition of mitoxantrone pump activity. The procedure:
(§3) Cellular mitoxantrone accumulation was determined according to the procedure described in Lage H et al., FEBS Lett 2001;503:179-84. Briefly, 4 x 10^5 cells were seeded out in 6-well plates 78 hours prior to the experiment. Incubation with mitoxantrone (0, 1,5 and 10 µg/ml) was performed for 60 minutes at 37°C and 70-80 % cellular confluence. For kinetics of intracellular enrichment of mitoxantrone, cells were exposed to 10 µg/ml mitoxantrone for 0, 5, 10 and 60 min. Cells were washed with ice-cold PBS, trypsinized and resuspended in 4 °C PBS at a concentration of 4 x 10^5 cells/ml. Intracellular fluorescence of mitoxantrone was determined by flow cytometry (Becton-Dickinson, San Jose, CA). The cells were excited at 480 nm and emission was measured at 630 nm. A minimum of 10^4 cells was analyzed for each sample. All assays were performed at least in three independent experiments, each time with triplicate wells.
(§4) To provide confirmation that the observed resensitization to mitoxantrone of BCRP-overexpressing cells was indeed the result of BCRP inhibition by TPS-A, a mitoxantrone accumulation assay was performed. The known so-called "multispecific" MDR modulator GF120918, inhibiting P-gp- and BCRP activity, was used as a positive control for P-gp- and BCRP antagonism.

Series [6] relates to drug-sensitive, parental cell line MCF-7. The series can be described thus: Mitoxantrone accumulation assay (flow cytometry). In kind it is cell-based, human. To be noted: increasing modulator concentrations. Here is the method: as §3, §4
Background: Flow cytometry measures light scatter and fluorescence of single cells or particles in a stream.

A further series relates to MCF-7/AdrVp. The series can be described thus: Mitoxantrone accumulation assay (flow cytometry). In kind it is cell-based, human. To be noted: 1 µM GF120918. Here is the method:
as §3, §4

The subject of series [7] is parental, drug-sensitive gastric carcinoma cell variant EPG85-257P. The series can be described thus: Mitoxantrone accumulation assay (flow cytometry). Type of series: cell-based, human. To be noted: GF120918 (Fig 4). The procedure: as §3, §4
The next series concerns BCRP. The series can be described thus: Mitoxantrone accumulation assay (flow cytometry). To be noted: human, probe mitoxantrone; 1 µM GF120918 (Fig 4); read-out: mitoxantrone accumulation inhibiting effect. In kind it is cell-based, human. Here is the method: as §3, §4
In series [8] the test system is BCRP-transfected cell variant MCF-7/BCRP clone 8. The series can be described thus: Mitoxantrone accumulation assay (flow cytometry). To be noted: 1 µM GF120918; compared to drug accumulation level in the untreated, parental control cell line (Fig 4B). Type of series: cell-based, human. Here is the method: as §3, §4
The next series relates to EPG85-257RDB cells. Description: Modulation of chemoresistance to daunorubicin (SRB proliferation assay, IC50/DMF). In kind it is cell-based, human. To be noted: GF120918; classical MDR, P-gp-expressing cells (Table 2, Figure 3B). The procedure:
Modulation of chemoresistance was tested using a proliferation assay based on sulforhodamine B (SRB), a protein-binding reagent (Skehan P et al., J Natl Cancer Inst 1990;82:1107-12), as described in Lage H et al., Int J Hyperthermia 2000;16:291-303; Lage H et al., FEBS Lett 2001;503:179-84; Lage H et al., FEBS Lett 2001;494:54-9. In each experiment, 350 cells per well were seeded in the presence or absence of TPS-A in 96-well plates in complete medium and allowed to attach overnight. Mitoxantrone or daunorubicin were added in a dilution series in triplicate wells. After 5 days, when unselected wells were still subconfluent, incubation was terminated by replacing the medium with 10 % trichloroacetic acid, followed by incubation at 4 °C for 1 h. […] After air-drying and re-solubilisation of the protein-bound dye in 10 mM Tris-HCl (pH 8.0), absorbance was quantified at 562.5 nm. […] Linear regression of data was done for the linear part of the curve, and IC50-values were calculated from multiple, at least three independent experiments for each cell line.
The cellular sensitivity to mitoxantrone and daunorubicin was assessed by determining the IC50 values without or with increasing concentrations of TPS-A or GF120918 as a positive control in the different cancer cell variants. […]
Background: In SRB staining, fixed cells bind dye roughly in proportion to their protein.

Series [9] relates to drug-sensitive and drug-resistant gastric and breast cancer cell lines. The series can be described thus: Cytotoxicity of the MDR modulators alone (SRB proliferation assay). Type of series: cell-based, human. Here is the method:
(§5) Modulation of chemoresistance was tested using a proliferation assay based on sulforhodamine B (SRB), a protein-binding reagent (Skehan P et al., J Natl Cancer Inst 1990;82:1107-12), as described in Lage H et al., Int J Hyperthermia 2000;16:291-303; Lage H et al., FEBS Lett 2001;503:179-84; Lage H et al., FEBS Lett 2001;494:54-9. In each experiment, 350 cells per well were seeded in the presence or absence of TPS-A in 96-well plates in complete medium and allowed to attach overnight. Mitoxantrone or daunorubicin were added in a dilution series in triplicate wells. After 5 days, when unselected wells were still subconfluent, incubation was terminated by replacing the medium with 10 % trichloroacetic acid, followed by incubation at 4 °C for 1 h. After samples were washed 5 times with water and air-dried, 50 µl 0.4 % SRB (Sigma, St. Louis, MO) in 1 % acetic acid was added and samples were incubated for 10 min at room temperature. Unbound dye was eliminated by washing the plates 5 times with 1 % acetic acid. After air-drying and re-solubilisation of the protein-bound dye in 10 mM Tris-HCl (pH 8.0), absorbance was quantified at 562.5 nm. To determine the IC50-value, the absorbance difference of control cells without drug was set to be 100 %. Linear regression of data was done for the linear part of the curve, and IC50-values were calculated from multiple, at least three independent experiments for each cell line.
The cytotoxicity of the MDR modulators TPS-A and GF120918 on drug-sensitive and drug-resistant gastric and breast cancer cell lines was initially assessed.

Series [10] relates to gastric and breast carcinoma cell variants. Description: Modulation of chemoresistance to mitoxantrone or daunorubicin (SRB proliferation assay, IC50/DMF). In kind it is cell-based, human. The procedure: as §5
The cellular sensitivity to mitoxantrone and daunorubicin was assessed by determining the IC50 values without or with increasing concentrations of TPS-A or GF120918 as a positive control in the different cancer cell variants. Table 1 presents the data of TPS-A reversal of mitoxantrone and daunorubicin resistance in different gastric and breast carcinoma cell variants, respectively. […] In each case, the equation DMF=(IC50 (-CS))/(IC50 (+CS)) [formula] was used to calculate the dose modifying factor (DMF), comparing the IC50 values in the presence (+CS) or absence (-CS) of the corresponding chemosensitizer (CS) TPS-A or GF120918.

Structures are written as SMILES.

Chain of P-gp (Homo sapiens, UniProt P08183) (P08183 whole entry): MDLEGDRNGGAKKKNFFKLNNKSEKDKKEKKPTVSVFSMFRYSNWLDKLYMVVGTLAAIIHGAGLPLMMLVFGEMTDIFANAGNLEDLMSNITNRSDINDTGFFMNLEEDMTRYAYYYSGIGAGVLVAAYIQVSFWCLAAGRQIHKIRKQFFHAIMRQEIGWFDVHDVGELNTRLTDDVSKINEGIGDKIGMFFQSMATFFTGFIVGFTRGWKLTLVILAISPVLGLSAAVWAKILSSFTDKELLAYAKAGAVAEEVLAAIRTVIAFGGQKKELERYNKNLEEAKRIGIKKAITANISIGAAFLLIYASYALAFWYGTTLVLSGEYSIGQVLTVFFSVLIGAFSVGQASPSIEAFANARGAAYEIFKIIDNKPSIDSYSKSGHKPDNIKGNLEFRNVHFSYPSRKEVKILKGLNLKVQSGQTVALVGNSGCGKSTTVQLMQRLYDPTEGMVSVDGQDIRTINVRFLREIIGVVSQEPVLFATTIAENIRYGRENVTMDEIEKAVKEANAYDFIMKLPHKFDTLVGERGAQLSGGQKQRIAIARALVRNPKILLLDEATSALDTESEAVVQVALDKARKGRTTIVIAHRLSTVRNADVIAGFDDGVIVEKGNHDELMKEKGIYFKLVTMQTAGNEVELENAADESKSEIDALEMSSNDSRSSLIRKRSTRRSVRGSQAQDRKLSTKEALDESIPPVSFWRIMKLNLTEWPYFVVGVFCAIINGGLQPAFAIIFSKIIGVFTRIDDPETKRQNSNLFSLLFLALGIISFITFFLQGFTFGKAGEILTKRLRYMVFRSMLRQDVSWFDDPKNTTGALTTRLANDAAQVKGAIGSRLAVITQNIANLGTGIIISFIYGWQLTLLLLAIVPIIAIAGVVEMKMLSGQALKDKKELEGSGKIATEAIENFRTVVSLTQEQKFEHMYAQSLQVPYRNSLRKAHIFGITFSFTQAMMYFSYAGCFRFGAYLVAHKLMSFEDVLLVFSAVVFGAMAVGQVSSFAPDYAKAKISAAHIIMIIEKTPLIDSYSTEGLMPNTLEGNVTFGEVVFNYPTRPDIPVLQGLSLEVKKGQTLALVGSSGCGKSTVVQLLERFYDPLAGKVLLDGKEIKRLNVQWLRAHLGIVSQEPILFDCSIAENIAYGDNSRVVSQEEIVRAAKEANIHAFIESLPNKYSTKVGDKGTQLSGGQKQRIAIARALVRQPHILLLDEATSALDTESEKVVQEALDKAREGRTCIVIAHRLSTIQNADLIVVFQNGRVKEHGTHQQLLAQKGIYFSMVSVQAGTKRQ

As to `COc1cc2c(cc1OC)CN(CCc1ccc(NC(=O)c3cccc4c(=O)c5cccc(OC)c5[nH]c34)cc1)CC2` [GF120918, reference compound], the “concentration capable of restoring drug sensitivity (as low as)” value on P-gp [1] was 100 nM. Moreover, the “PS transport (C6-NBD-PS outward translocation)” value in series [2] is listed as “did not affect PS transport significantly”. In series [3], the “PS analogue outward translocation (MDR1 Pgp lipid transport activity)” value is on record as “significant reduction”. Also, the “amount of C6-NBD-PS in the BSA containing medium (outward translocation)” value in series [4] is “sharp and highly significant decrease”. Further, the inhibition at 1 µM with P-gp [5] worked out at 75%; with BCRP it was 80%. In series [6], the “effect on drug accumulation” value is recorded as “only a weak dosage-depending effect”. Moreover, in the series on MCF-7/AdrVp, the “increase of drug accumulation with respect to control cells” value came to 40%. Besides, the “transporter inhibiting effect (mitoxantrone accumulation)” value in series [7] is recorded as “very weak transporter inhibiting effect”. In addition, the “inhibition of the mitoxantrone pump activity” value in [8] is “completely”. In the series with EPG85-257RDB cells, the sensitization to daunorubicin entry is “considerable dose-depending sensitization”. The growth inhibitory effect entry in series [9] (1 µM GF120918 alone, any of the drug-sensitive or drug-resistant cancer cell lines tested) was “no growth inhibitory effect”. For the same molecule, the “cross-resistance to the MDR modulator” value in series [9] (multidrug-resistant tumor cell lines) is reported as “No evidence of cross-resistance”. Besides, the “restoration of drug sensitivity (mitoxantrone resistance)” value in [10] (1 µM GF120918, EPG85-257RNOV and EPG85-257RDB, same for MCF7/BCRP clone 8 and MCF-7/AdrVp) is recorded as “not sufficient to restore drug sensitivity completely”. Moreover, the resensitization to mitoxantrone result in [10] (GF120918, BCRP- and P-gp-expressing stomach and mamma carcinoma-derived cell lines (Table 2, Figure 3A)) was “dose-depending resensitization”. Also, the “effect on sensitivity to daunorubicin” value in series [10] (GF120918, the other human gastric and breast cancer cell lines (not EPG85-257RDB)) is recorded as “no significant effect”.
